Measured values reported in the NIST ThermoML archive (doi:10.1021/je700710d).
Numbers after ± are expanded uncertainties.

Settings: 298.15 K, 101.33 kPa, Liquid; for viscosity: Capillary tube (Ostwald / Ubbelohde) method

Row | SMILES | viscosity | mass density (Vibrating tube method) | mass density
1 | CCOS(=O)(=O)[O-].CCn1cc[n+](C)c1 [1-ethyl-3-methylimidazolium ethyl sulfate] | 97.58 ± 4 mPa·s | 1237.63 ± 8.3 kg/m3 | –
2 | CCO [ethanol] | 1.082 ± 0.009 mPa·s | – | 785.46 ± 0.47 kg/m3
